Results on 37 compounds are retold here after patent US20130184227A1, “Cytochrome P450 2C9 Inhibitors” (priority 2004, published 2013).

SMILES strings stand for the structures.

For this data set, the system named is CYP2C9. Briefly: in vitro. The conditions noted are these: Sprague-Dawley, rat, microsomes.
[1] abbreviates: pH 7.4, % inhibition of CYP2C9 activity.
Setting [2] is: pH 7.4, % inhibition of CYP2C9 activity, test article 1 μM, tolbutamide 1 mM, rat liver microsomes.
Setting [3] is: pH 7.4, % inhibition of CYP2C9 activity, test article 10 μM, tolbutamide 1 mM, rat liver microsomes.
The mark [4] stands for this setting: pH 7.4, % inhibition of CYP2C9 activity, test article 100 μM, tolbutamide 1 mM, rat liver microsomes.

The term inhibition denotes the change of the read-out against control, counted positive when it falls. In the case of `CCCCCCCCCCCC1=C(O)C(=O)C=C(O)C1=O` [Embelin], under setting [1], the inhibition at 7.5 min, 1 μM amounted to 24.7%; the inhibition at 7.5 min, 10 μM came to 11.2%; the inhibition at 7.5 min, 50 μM was 18%.

Turning to `O=c1cc(-c2ccc(O)c(O)c2)oc2cc(O)cc(O)c12` [luteolin], under setting [1], the inhibition at 7.5 min, 1 μM is 20.1%; the inhibition at 7.5 min, 10 μM was determined as 37.9%; the inhibition at 7.5 min, 100 μM was 93.2%.

As for `C[C@@H]1O[C@@H](Oc2c(-c3ccc(O)c(O)c3)oc3cc(O)cc(O)c3c2=O)[C@H](O)[C@H](O)[C@H]1O` [Quercitrin], under “pH 7.4”, the inhibition at 7.5 min, 1 μM turned out to be 24.2%; the inhibition at 7.5 min, 10 μM is 21.1%; the inhibition at 7.5 min, 100 μM is 13.5%.

Consider `O=C(O)c1cc(O)c(O)c(O)c1` [gallic acid], for which, under setting [1], the inhibition at 7.5 min, 1 μM was -3.05%; the inhibition at 7.5 min, 10 μM was -2.47%; the inhibition at 7.5 min, 100 μM is -0.97%.

Take `O=c1c(-c2ccc(O)cc2)coc2cc(O)cc(O)c12` [Genistein]: the inhibition at 7.5 min, 1 μM runs as follows: under setting [2], 49.6%; (pH 7.4, % inhibition of tolbutamide metabolism in microsomes, 1 μM, reaction time 7.5 minute, n = 3) 49.6%; (pH 7.4, % inhibition, 1 μM (low concentration)) 49.6%. The inhibition at 7.5 min, 10 μM under setting [3] amounted to 67.7%; the inhibition at 7.5 min, 10 μM (pH 7.4, % inhibition of tolbutamide metabolism in microsomes, 10 Mm, reaction time 7.5 minute, n = 3) came out at 67.7%; the inhibition at 7.5 min, 10 μM (pH 7.4, % inhibition, 10 μM (mid concentration)) came to 67.7%. The inhibition at 7.5 min, 100 μM under setting [4] was determined as 82.7%; the inhibition at 7.5 min, 100 μM (pH 7.4, % inhibition of tolbutamide metabolism in microsomes, 100 μM, reaction time 7.5 minute, n = 3) was 82.7%; the inhibition at 7.5 min, 100 μM (pH 7.4, % inhibition, 100 μM (high concentration)) came out at 82.7%.

As to `COc1cc(-c2oc3cc(O)cc(O)c3c(=O)c2O)ccc1O` [Isorhamnetin], where the note is “pH 7.4”, the inhibition at 7.5 min, 1 μM was 19.6%; the inhibition at 7.5 min, 10 μM amounted to 61.5%; the inhibition at 7.5 min, 75 μM was found to be 65.7%.

Regarding `O=C(O)[C@H]1O[C@@H](Oc2cc3oc(-c4ccccc4)cc(=O)c3c(O)c2O)[C@H](O)[C@@H](O)[C@@H]1O` [baicalin], under setting [1], the inhibition at 7.5 min, 2.5 μM was -5.36% and the inhibition at 7.5 min, 25 μM is 7.77%.

On to `COc1ccc(-c2cc(=O)c3c(O)cc(O[C@@H]4O[C@H](CO[C@@H]5O[C@@H](C)[C@H](O)[C@@H](O)[C@H]5O)[C@@H](O)[C@H](O)[C@H]4O)cc3o2)cc1O` [Diosmin], for which, under setting [1], the inhibition at 7.5 min, 1 μM stood at 1.51% and the inhibition at 7.5 min, 10 μM was found to be 4.7%.

Regarding `O=c1c(O[C@@H]2O[C@H](CO)[C@@H](O)[C@H](O)[C@H]2O)c(-c2ccc(O)c(O)c2)oc2cc(O)cc(O)c12` [isoquercitrin], under setting [1], the inhibition at 7.5 min, 1 μM amounted to 20.9%; the inhibition at 7.5 min, 10 μM turned out to be 27%; the inhibition at 7.5 min, 100 μM amounted to 61.8%.

Consider `O=c1c(-c2ccc(O)cc2)coc2cc(O[C@@H]3O[C@H](CO)[C@@H](O)[C@H](O)[C@H]3O)ccc12` [Daidzin], for which, under “pH 7.4”, the inhibition at 7.5 min, 1 μM was found to be 0.95%; the inhibition at 7.5 min, 10 μM is -2.46%; the inhibition at 7.5 min, 25 μM was -1.16%; the inhibition at 7.5 min, 100 μM was -1.33%.

For `COc1ccc([C@@H]2CC(=O)c3c(O)cc(O)cc3O2)cc1O` [Hesperetin], under setting [1], the inhibition at 7.5 min, 1 μM was -3.58% and the inhibition at 7.5 min, 10 μM amounted to 29.1%.

For the compound `C=C[C@H]1[C@H](O[C@@H]2O[C@H](CO)[C@@H](O)[C@H](O)[C@H]2O)OC=C2C(=O)OCC[C@]21O` [Swertiamarin], under setting [1], the inhibition at 7.5 min, 1 μM came out at 16.3%; the inhibition at 7.5 min, 10 μM was 16.6%; the inhibition at 7.5 min, 100 μM worked out at 18.4%.

Consider `O=c1c(O)c(-c2ccc(O)cc2)oc2cc(O)cc(O)c12` [kaempferol], for which, under setting [1], the inhibition at 7.5 min, 1 μM is -22.3% and the inhibition at 7.5 min, 10 μM was determined as 38.3%.

Regarding `C[C@@]12C[C@@]3(O)O[C@@H](O1)[C@]1(COC(=O)c4ccccc4)[C@H]3C[C@@]12O[C@@H]1O[C@H](CO)[C@@H](O)[C@H](O)[C@H]1O` [paeoniflorin], under setting [1], the inhibition at 7.5 min, 1 μM was 10.1%; the inhibition at 7.5 min, 10 μM is 0.7%; the inhibition at 7.5 min, 100 μM was -1.77%.

As to `O=c1cc(-c2ccccc2)oc2cc(O)c(O)c(O)c12` [Baicalein], under setting [1], the inhibition at 7.5 min, 2.5 μM worked out at 1.76% and the inhibition at 7.5 min, 25 μM was 5.06%.

Turning to `CC1(C)[C@@H](O[C@H]2O[C@H](C(=O)O)[C@@H](O)[C@H](O)[C@H]2O[C@@H]2O[C@H](C(=O)O)[C@@H](O)[C@H](O)[C@H]2O)CC[C@]2(C)[C@H]3C(=O)C=C4[C@@H]5C[C@@](C)(C(=O)O)CC[C@]5(C)CC[C@@]4(C)[C@]3(C)CC[C@@H]12` [glycyrrhizin], under setting [1], the inhibition at 7.5 min, 1 μM came out at 5.14%; the inhibition at 7.5 min, 10 μM came to 2.23%; the inhibition at 7.5 min, 100 μM was found to be 4.87%.

Consider `O=C1C[C@@H](c2ccc(O[C@@H]3O[C@H](CO)[C@@H](O)[C@H](O)[C@H]3O)cc2)Oc2cc(O)ccc21` [Liquiritin], for which, under setting [1], the inhibition at 7.5 min, 1 μM came to 18.1%; the inhibition at 7.5 min, 10 μM amounted to 18.4%; the inhibition at 7.5 min, 100 μM was found to be 24.8%.

Regarding `COc1ccc(-c2coc3cc(O)ccc3c2=O)cc1` [Formononetin], under setting [1], the inhibition at 7.5 min, 1 μM was 23.3%; the inhibition at 7.5 min, 10 μM came out at 30.6%; the inhibition at 7.5 min, 50 μM turned out to be 57.9%.

For `COc1cc(O)c2c(=O)cc(-c3ccc(O)cc3)oc2c1` [Genkwanin], under setting [1], the inhibition at 7.5 min, 1 μM was 30.9% and the inhibition at 7.5 min, 10 μM was 37.4%.

On to `O=C(O)/C=C/c1ccccc1` [trans-cinnamic acid], for which, under setting [1], the inhibition at 7.5 min, 1 μM is 26.9%; the inhibition at 7.5 min, 10 μM came out at 15.8%; the inhibition at 7.5 min, 100 μM was determined as 26.1%.

Turning to `C[C@@H]1O[C@@H](OC[C@H]2O[C@@H](Oc3c(-c4ccc(O)c(O)c4)oc4cc(O)cc(O)c4c3=O)[C@H](O)[C@@H](O)[C@@H]2O)[C@H](O)[C@H](O)[C@H]1O` [Rutin], under setting [1], the inhibition at 7.5 min, 1 μM was -2.59%; the inhibition at 7.5 min, 10 μM is -14%; the inhibition at 7.5 min, 100 μM is -6.46%.

For the compound `O=C(CCc1ccc(O)cc1)c1c(O)cc(O)cc1O` [Phloretin], under setting [1], the inhibition at 7.5 min, 1 μM was 23.8%; the inhibition at 7.5 min, 10 μM came to 34.4%; the inhibition at 7.5 min, 100 μM was 95.1%.

Turning to `COc1ccc([C@@H]2CC(=O)c3c(O)cc(O[C@@H]4O[C@H](CO)[C@@H](O)[C@H](O)[C@H]4O[C@@H]4O[C@@H](C)[C@H](O)[C@@H](O)[C@H]4O)cc3O2)cc1` [Poncirin], under setting [1], the inhibition at 7.5 min, 1 μM was determined as 7.76%; the inhibition at 7.5 min, 10 μM was 16.3%; the inhibition at 7.5 min, 100 μM was 15%.

For `C=CC(=C)CCC=C(C)C` [β-Myrcene], under setting [1], the inhibition at 7.5 min, 1 μM worked out at 24.1%; the inhibition at 7.5 min, 10 μM amounted to 16.6%; the inhibition at 7.5 min, 100 μM is 29.9%.

For the compound `O=c1cc(-c2ccc(O)cc2)oc2cc(O)cc(O)c12` [apigenin], under setting [1], the inhibition at 7.5 min, 2.5 μM was determined as 21.7% and the inhibition at 7.5 min, 25 μM is 76.9%.

Turning to `CC1(C)CC[C@]2(C(=O)O)CC[C@]3(C)C(=CC[C@@H]4[C@@]5(C)CC[C@H](O)C(C)(C)[C@@H]5CC[C@]43C)[C@@H]2C1` [Oleanolic acid], the inhibition at 7.5 min, 1 μM under setting [2] came to 16.8%. The inhibition at 7.5 min, 10 μM under setting [3] came to 42.4%. Also, the inhibition at 7.5 min, 100 μM under setting [4] amounted to 41.1%.

Regarding `O=c1c(-c2ccc(O)cc2)coc2cc(O)ccc12` [Daidzein], under setting [1], the inhibition at 7.5 min, 1 μM was found to be 1.35%; the inhibition at 7.5 min, 10 μM was 13.4%; the inhibition at 7.5 min, 25 μM was determined as 15.7%.

For `O=c1ccc2ccc(O)cc2o1` [Umbelliferone], under setting [1], the inhibition at 7.5 min, 1 μM was -7.17%; the inhibition at 7.5 min, 10 μM is -6.64%; the inhibition at 7.5 min, 100 μM is -2.02%.

Take `CC(Cc1ccc(O)c(O)c1)C(C)Cc1ccc(O)c(O)c1` (centres unmarked) [Nordihydroguaiaretic acid]: under setting [1], the inhibition at 7.5 min, 1 μM was -16.1%; the inhibition at 7.5 min, 10 μM was 9.76%; the inhibition at 7.5 min, 100 μM worked out at 81.2%.

`O=c1cc(-c2ccc(O)cc2)oc2cc(O)c([C@@H]3O[C@H](CO)[C@@H](O)[C@H](O)[C@H]3O)c(O)c12` [isovitexin]: under setting [1], the inhibition at 7.5 min, 1 μM turned out to be 35.6%; the inhibition at 7.5 min, 10 μM is 37.4%; the inhibition at 7.5 min, 100 μM was found to be 45.4%.

Turning to `CC(C)[C@@H](C)/C=C/[C@@H](C)[C@H]1CC[C@H]2C3=CC=C4C[C@@H](O)CC[C@]4(C)[C@H]3CC[C@]12C` [ergosterol], under setting [1], the inhibition at 7.5 min, 1 μM came out at 1%; the inhibition at 7.5 min, 10 μM worked out at 8.12%; the inhibition at 7.5 min, 30 μM was found to be 3.57%.

For `O=c1cc(-c2ccccc2)oc2cc(O)cc(O)c12` [Chrysin], where the note is “pH 7.4”, the inhibition at 7.5 min, 1 μM was determined as 6.86%; the inhibition at 7.5 min, 10 μM is 60.6%; the inhibition at 7.5 min, 50 μM stood at 75.1%.

In the case of `O=c1c(-c2ccc(O)cc2)coc2c([C@@H]3O[C@H](CO)[C@@H](O)[C@H](O)[C@H]3O)c(O)ccc12` [Puerarin], under setting [1], the inhibition at 7.5 min, 1 μM amounted to 38.1%; the inhibition at 7.5 min, 10 μM was determined as 39%; the inhibition at 7.5 min, 100 μM worked out at 33.3%.

As to `CC(=O)OCCCc1ccccc1` [3-Phenylpropyl Acetate], under setting [1], the inhibition at 7.5 min, 1 μM stood at 36.6% and the inhibition at 7.5 min, 100 μM turned out to be 42.6%.

For `O=C1c2c(O)cc(O)cc2O[C@H](c2ccc(O)c(O)c2)[C@H]1O` [(+)-Taxifolin], the inhibition at 7.5 min, 1 μM under setting [2] is -1.29%. Under setting [3], the inhibition at 7.5 min, 10 μM stood at 31.2%. In addition, the inhibition at 7.5 min, 100 μM under setting [4] worked out at 50.5%.

On to `O=c1c(O)c(-c2ccc(O)cc2O)oc2cc(O)cc(O)c12` [Morin], for which, under setting [1], the inhibition at 7.5 min, 1 μM was 14.3%; the inhibition at 7.5 min, 10 μM amounted to 11.6%; the inhibition at 7.5 min, 100 μM was 51%.

As to `O=c1c(O)c(-c2cc(O)c(O)c(O)c2)oc2cc(O)cc(O)c12` [myricetin], under setting [1], the inhibition at 7.5 min, 1 μM is -3.19%; the inhibition at 7.5 min, 10 μM is 10.6%; the inhibition at 7.5 min, 100 μM came out at 88.8%.
